Measured values: the supplement of paper PMC10784567
± gives the standard deviation of the averaged measurements.

Compound: C=C1C[C@H]2C=Nc3cc(OCCCCCOc4cc5c(cc4OC)C(=O)N4CC(=C)C[C@H]4C=N5)c(OC)cc3C(=O)N2C1 [SG2057]
Test: absolute IC50 (cell viability, CellTiter-Glo); higher = less potent
Settings: treatment time: 3 days
Experimental: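 Large cancer cell line panel screens in 384-well plates. Cells were treated for 3 days with a 9-point dose titration of the free PBD dimer SG2057; viability was read with CellTiter-Glo. Absolute IC50 came from a four-parameter Hill fit normalised to the median of vehicle (DMSO) wells. Several independent screens (projects) per cell line are averaged; values in µM, lowest-dose floor about 1.524e-5 µM.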

Row | Test System | absolute IC50 [nM]
1 | TK-10 | 2.7 ± 2.1
2 | 1624-17147 (Tumor B) | 1.55
3 | HCC1263 | 5.65 ± 3.7
4 | KYSE-410 | 0.579
5 | HCC1534 | 3.18 ± 2.4
6 | 1624-16997 (Tumor A) | 0.926
7 | SM1 | 0.444
8 | A549 | 0.926 ± 1.4
9 | HEC-108 | 1.42
10 | JHH-5 | 0.248
11 | NCI-H1792 | 2.24
12 | HCC1347 | 2.49
13 | C32TG | 0.2
14 | NCI-H1437 | 2.05 ± 2
15 | LXFL529 | 2.72
16 | BOKU | 0.258
17 | Clone M-3 Cloudman S91 melanoma | 0.202
18 | CAL-12T | 3.57 ± 3.2
19 | SU-DHL-6 | 0.536 ± 0.73
20 | L-363 | 0.384 ± 0.54
21 | G-402 | 0.349 ± 0.14
22 | HCC1576 | 0.476
23 | HEC-116 | 0.464
24 | CHL-1 | 1.39 ± 1.1
25 | KARPAS-620 | 2.96

Row | Test System | absolute IC50 [nM]
26 | LNCaP/Ner | 0.0717
27 | U-87 MG | 3.32
28 | MC-38 Ovalbumin | 0.208
29 | NJG | 0.151
30 | KNS-62 | 1.4 ± 2.5
31 | CoCM-1 | 13.5
32 | HCC78 | 0.114 ± 0.099
33 | UACC-257 | 2.41
34 | CA46 | 0.354 ± 0.53
35 | COV362.4 | 4.61 ± 1.7
36 | ME-180 | 0.155
37 | NCI-H1869 | 2.35
38 | OPM-2 | 1.63 ± 1.2
39 | 1624-17082 (Tumor A) | 0.887
40 | NUGC-4 | 0.443
41 | EPLC-272H | 0.205
42 | BA/F3 | 0.114
43 | HUH-7 | 1.82
44 | COV504 | 3.76 ± 4
45 | COLO 678 | 5.65 ± 4.5
46 | 59M | 1.47
47 | COLO 818 | 3.37 ± 4.1
48 | WSU-DLCL2 | 0.358 ± 0.36
49 | HCC364 | 2.86 ± 4.4
50 | RERF-GC-1B | 1.07 ± 1

Row | Test System | absolute IC50 [nM]
51 | NCI-H1944 | 1.06 ± 0.29
52 | MCAS | 0.42 ± 0.58
53 | MEL-JUSO | 0.875 ± 1
54 | UM-RC-7 | 0.672
55 | RT-112 | 1.53 ± 2.8
56 | 66c14 | 0.725
57 | ML-2 | 0.0572 ± 0.013
58 | U266B1 | 2.64 ± 2.4
59 | HCC1187 | 0.601 ± 0.69
60 | SUM 149PT | 1.68 ± 1.6
61 | KHM-5M | 0.561
62 | GOS-3 | 0.597
63 | NCI-H920 | 9.13
64 | NCI-H460 | 0.242 ± 0.2
65 | 1624-17091 (Tumor A) | 0.849
66 | JHH-2 | 4.84 ± 8.1
67 | NCI-H146 | 0.508
68 | SNG-M | 0.285 ± 0.16
69 | COLO 684 | 5
70 | NB(TU)1-10 | 0.604
71 | HCC366 | 4.65
72 | MHH-ES-1 | 0.159
73 | ID8 | 0.292
74 | Reh | 0.757
75 | SK-UT-1B | < 0.0152

Row | Test System | absolute IC50 [nM]
76 | JHH-1 | 2.07 ± 3.1
77 | HCA-7 | 2.01 ± 1.7
78 | COLO 206F | 2.54 ± 2.5
79 | NCI-H28 | 0.89
80 | HN | 0.225
81 | NCI-H1563 | 3.61
82 | NCI-H2126 | 3.94
83 | KARPAS-1106P | 0.158 ± 0.045
84 | KMS-26 | 0.0823 ± 0.024
85 | HGC-27 | 0.406 ± 0.086
86 | NCI-H2171 | 0.742 ± 1.3
87 | SW 780 | 0.754
88 | COLO 680N | 0.602
89 | SW 1463 | 7.83 ± 8.2
90 | COV434 | 0.188 ± 0.19
91 | OE33 | 0.0612
92 | COR-L47 | 4.01
93 | DAN-G | 0.694 ± 0.32
94 | NCI-H810 | 1.42
95 | Hepa 1-6 | 0.286
96 | MDA-MB-435 | 1.76 ± 2.4
97 | MCF 10A CDH1 -/- (Sigma) | 2.53
98 | 4T1 Luciferase | 3.01
99 | NCI-H2009 | 1.1 ± 0.98
100 | KYSE-520 | 1.01

Row | Test System | absolute IC50 [nM]
101 | AB22 | 4.95
102 | Hep 3B2.1-7 | 3.83 ± 2.6
103 | NCI-H1651 | 0.443
104 | WM-115 | 0.436 ± 0.57
105 | BFTC-909 | 0.681
106 | IGR-39 | 0.0981 ± 0.02
107 | JJN-3 | 0.816 ± 1.7
108 | A-673 | 0.0661
109 | HEC-88nu | 3.07
110 | NCI-H1339 | 0.155
111 | Panc 08.13 | 2.7
112 | PMF-ko14 | 2.86 ± 5.1
113 | HCC827 | 2.16 ± 4.3
114 | NCI-H1648 | 8.58
115 | ChaGo-K-1 | 3.31 ± 1.5
116 | SW 403 | 3.64 ± 1.6
117 | 769-P | 4.38 ± 4.6
118 | 4498-16820 Mel-BR1 | 0.55
119 | LN-229 | 2.6 ± 1.4
120 | QGP-1 | 5.47 ± 0.39
121 | UMC-11 | 14.8
122 | Caki-2 | 10.2 ± 19
123 | OE19 | 2.23
124 | PK-1 | 1.53 ± 1.3
125 | RERF-LC-KJ | 1.65 ± 2.5

Row | Test System | absolute IC50 [nM]
126 | KP-N-SI9s | 0.0551
127 | KALS-1 | 0.336
128 | 1624-17091 (Tumor B) | 2.12
129 | KYSE-150 | 0.194
130 | Detroit 562 | 1.79 ± 2.6
131 | HEC-251 | 1.28
132 | HCT-8 | 1.43
133 | SK-N-FI | 8.79 ± 11
134 | Caki-1 | 0.052
135 | COLO 829 | 0.32 ± 0.18
136 | NCI-H1650 | 2.52
137 | KMS-21BM | 0.26 ± 0.051
138 | NCI-H838 | 1.34
139 | BT-474 | 4.09 ± 3.7
140 | SW 480 | 0.462 ± 0.51
141 | TYK-nu | 0.113 ± 0.18
142 | MOR | 8.9
143 | SNU-475 | 2.56 ± 3.8
144 | MPC-11 | 0.229
145 | MKN-45 | 1.08 ± 0.44
146 | EMT6 Luciferase | 0.606
147 | AE17 | 0.259
148 | CI-1 | 0.104 ± 0.014
149 | HCC850 | 0.178
150 | HEp-2 | 0.322

Row | Test System | absolute IC50 [nM]
151 | NCI-H1930 | 0.0346
152 | KINGS-1 | 2.75
153 | C32 | 0.31 ± 0.098
154 | 1624-17095 (Tumor B) | 5.51
155 | HCC1319 | 12.8
156 | NCI-H1703 | 0.36 ± 0.39
157 | VMRC-RCW | 3.72
158 | HCC1171 | 1.01 ± 0.16
159 | GI-1 | 0.311
160 | HCC2450 | 5.43
161 | HCC-15 | 2.35 ± 3.1
162 | COV413A | 2.34
163 | G124 | 2.54
164 | HCC70 (DODx) | 4.647 ± 0.017
165 | 143B | 0.191
166 | OVTOKO | 0.557 ± 0.55
167 | Hs 695T | 0.547 ± 0.21
168 | TRAMP-C1 | 0.345
169 | JJ012 | 6.35
170 | NCI-H2347 | 1.14 ± 2.7
171 | FaDu | 0.35
172 | MCF 10A | 3.78 ± 2.7
173 | NCI-H1838 | 2.32 ± 2.8
174 | 23132/87 | 1 ± 1.2
175 | CL-11 | 21.7

Row | Test System | absolute IC50 [nM]
176 | IM-95 | 2.41
177 | HOP-18 | 3.89
178 | RC-K8 | 0.667 ± 1
179 | U-2 OS | 0.53
180 | HCC193 | 3.17 ± 2.2
181 | UM-RC-6 | 0.651
182 | LCLC-97TM1 | 1.4
183 | HCC2279 | 3.55 ± 6.2
184 | G141 | 0.924 ± 0.65
185 | KG-1 | 1.22 ± 0.91
186 | MX-1 | 2.51 ± 2
187 | SK-N-DZ | 5.04
188 | KCI-MOH1 | 3.23 ± 2
189 | HT-29 | 2.89 ± 2
190 | 8505C | 0.595
191 | NCI-H2405 | 0.552 ± 0.38
192 | KP-3 | 2.41 ± 1.7
193 | KHM-1B | 0.335 ± 0.24
194 | HuCCT1 | 2.63 ± 2.5
195 | HCC1493 | 0.412 ± 0.72
196 | Hs 683 | 0.626 ± 1
197 | NCI-H1975 | 2
198 | HCC44 | 0.762 ± 0.59
199 | HM7 | 0.488 ± 0.27
200 | C-33 A | 0.0527

Row | Test System | absolute IC50 [nM]
201 | TRAMP-C2 | 0.154
202 | UKE-1 | 0.0189 ± 0.0056
203 | IM-95m | 3.43
204 | BT-20 | 1.72 ± 0.74
205 | EL4 | 0.0929
206 | SJCRH30 (RC13) | 0.187
207 | HCC3335 | 1.59
208 | PL-21 | 1.38 ± 1.2
209 | HCS-2 | 0.957
210 | OCI-LY-10 | < 0.0152
211 | NCI-H1581 | 0.852 ± 0.72
212 | TC-71 | < 0.0152
213 | OvCA 432 | 1.08 ± 0.64
214 | SKG-IIIa | 17.7
215 | HCC1954 | 1.35 ± 3.1
216 | NCI-H2228 | 0.279
217 | MT-3 | 0.947 ± 0.64
218 | PAN 02 | 1.39
219 | OV56 | 0.195 ± 0.3
220 | SW 626 | 3.67
221 | COLO 783 | 3.44
222 | NCI-H661 | 1.78 ± 3.4
223 | KMS-11 | 0.761 ± 0.19
224 | Caco-2 | 5.17 ± 0.99
225 | 1624-16997 (Tumor C) | 1.55

Row | Test System | absolute IC50 [nM]
226 | SNU-638 | 0.137 ± 0.046
227 | KR7110 | 1.36
228 | HEC-265 | 0.555
229 | HT-1080 | 0.569 ± 0.14
230 | Panc 10.05 | 0.383 ± 0.11
231 | PAN 02 X1 | 0.839
232 | YAPC | 1.16 ± 0.74
233 | T.T | 1.93
234 | HUP-T3 | 0.645 ± 0.72
235 | SNU-449 | 5.84
236 | GR-M | 0.107 ± 0.064
237 | NCI-H196 | 2.69
238 | EFE-184 | 5.81 ± 7.5
239 | NCI-N417 | 0.737
240 | MS751 | 0.683
241 | CGTH-W-1 | 0.189
242 | SUM 159PT | 0.681
243 | VMRC-LCD | 4.27
244 | HEC-6 | 0.536
